Test results reported in US20240150368A1, “ULK INHIBITORS AND METHODS OF USE THEREOF” (Deciphera Pharmaceuticals, LLC, priority 2022, published 2024).

Experiments:
[1] = biological target: T1, ULK1 kinase (Homo sapiens, UniProt O75385, E37A/K38A); experiment: Biochemical assay for ULK1 (coupled pyruvate kinase/lactate dehydrogenase assay); details: 1 mM ATP, 0.1 nM ULK1; read-out: ULK1 (inhibition of biochemical activity), IC50
T1 construct: (residues 1-283; ID NO: 1); purchased Beryllium
T1 sequence (O75385 1-283 E37A/K38A): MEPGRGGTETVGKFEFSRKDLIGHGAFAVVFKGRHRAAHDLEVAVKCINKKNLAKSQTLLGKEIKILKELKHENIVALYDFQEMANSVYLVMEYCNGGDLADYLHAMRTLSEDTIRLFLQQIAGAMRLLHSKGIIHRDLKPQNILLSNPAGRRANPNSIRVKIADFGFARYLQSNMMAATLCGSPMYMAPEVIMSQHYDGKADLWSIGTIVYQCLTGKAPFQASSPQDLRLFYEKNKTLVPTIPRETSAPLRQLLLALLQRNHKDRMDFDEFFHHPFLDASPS
Protocol: Biochemical Assay for ULK1 (SEQ. ID NO: 1)
Activity of ULK1 kinase was determined spectroscopically using a coupled pyruvate kinase/lactate dehydrogenase assay that continuously monitors the ATP hydrolysis-dependent oxidation of NADH (e.g., Schindler et al. Science (2000) 289: 1938-1942). Assays were conducted in 384-well plates (100 μL final volume) using 0.1 nM ULK1 (from Beryllium), 0.075 mM peptide substrate (YANWLAASIYLDGKKK), 1.5 units pyruvate kinase, 2.1 units lactate dehydrogenase, 1 mM phosphoenol pyruvate, 0.28 mM NADH and 1 mM ATP in assay buffer (100 mM Tris, pH 7.5, 15 mM MgCl2, 0.5 mM DTT, 0.004% (w/v) BSA, and 0.004% Triton X-100). Inhibition of ULK1 was measured by adding serial diluted test compound (final assay concentration of 1% DMSO). A decrease in absorption at 340 nm was monitored continuously for 6 h at 30° C. on a multi-mode microplate reader (BioTek). The reaction rate was calculated using the 2-3 h time frame. The reaction rate at each concentration of compound was converted to percent inhibition using controls (i.e., reaction with no test compound and reaction with a known inhibitor) and IC50 values were calculated using software routines in Prism (GraphPad software).

[2] = biological target: T2, ULK2 kinase (Homo sapiens, UniProt Q8IYT8); experiment: Biochemical assay for ULK2 (coupled pyruvate kinase/lactate dehydrogenase assay); details: 1 mM ATP, 1 nM ULK2; read-out: ULK2 (inhibition of biochemical activity), IC50
T2 construct: (residues 1-306 with N-terminal GST and His tag; ID NO: 2); purchased Signal Chem U02-11G
Protocol: Biochemical Assay for ULK2 (SEQ. ID NO: 2)
Activity of ULK2 kinase was determined spectroscopically using a coupled pyruvate kinase/lactate dehydrogenase assay that continuously monitors the ATP hydrolysis-dependent oxidation of NADH (e.g., Schindler et al. Science (2000) 289: 1938-1942). Assays were conducted in 384-well plates (100 μL final volume) using 1 nM ULK2 (Signal Chem U02-11G), 200 μM ULKtide, 1.5 units pyruvate kinase, 2.1 units lactate dehydrogenase, 1 mM phosphoenol pyruvate, 0.28 mM NADH and 1 mM ATP in assay buffer (100 mM Tris, pH 7.5, 15 mM MgCl2, 0.5 mM DTT, 0.1% octyl-glucoside, 0.002% (w/v) BSA, and 0.002% Triton X-100). Inhibition of ULK2 was measured by adding serial diluted test compound (final assay concentration of 1% DMSO). A decrease in absorption at 340 nm was monitored continuously for 6 h at 30° C. on a multi-mode microplate reader (BioTek). The reaction rate was calculated using the 2-3 h time frame. The reaction rate at each concentration of compound was converted to percent inhibition using controls (i.e., reaction with no test compound and reaction with a known inhibitor) and IC50 values were calculated by fitting a four-parameter sigmoidal curve to the data using Prism (GraphPad software).

T2 sequence (Q8IYT8 with tags, fused parts or gaps): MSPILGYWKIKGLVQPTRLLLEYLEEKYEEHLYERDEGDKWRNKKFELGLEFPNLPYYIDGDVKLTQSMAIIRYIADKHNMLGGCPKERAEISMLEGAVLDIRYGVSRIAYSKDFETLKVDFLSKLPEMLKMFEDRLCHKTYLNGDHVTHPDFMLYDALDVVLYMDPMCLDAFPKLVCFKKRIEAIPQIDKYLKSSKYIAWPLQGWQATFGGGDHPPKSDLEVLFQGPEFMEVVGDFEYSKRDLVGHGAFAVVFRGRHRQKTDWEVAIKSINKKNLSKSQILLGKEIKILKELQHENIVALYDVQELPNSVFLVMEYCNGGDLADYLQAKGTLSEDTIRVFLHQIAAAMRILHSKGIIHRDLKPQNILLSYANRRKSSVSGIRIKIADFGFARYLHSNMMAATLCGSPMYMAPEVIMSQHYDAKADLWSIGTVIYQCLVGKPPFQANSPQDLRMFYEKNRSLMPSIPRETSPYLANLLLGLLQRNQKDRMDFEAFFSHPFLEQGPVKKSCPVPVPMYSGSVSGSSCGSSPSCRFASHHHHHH

| IC50 [1] [nM] | IC50 [2] [nM] | Structure (SMILES) |
| --- | --- | --- |
| 100 to 500 | – | CC/C(Nc1ccc(N2CCN(C)CC2)cc1)=C1/C(=O)Nc2ccc(C(=O)NOC)cc21 [Example 10] |
| 100 to 500 | – | CC/C(Nc1cnn(C2CCN(C(C)C)CC2)c1)=C1/C(=O)Nc2ccc(C(=O)N3CCCO3)cc21 [Example 12] |
| 100 to 500 | – | CC/C(Nc1cnn(C2CCN(C(C)C)CC2)c1)=C1/C(=O)Nc2ccc(C(=O)NC)cc21 [Example 13] |
| 100 to 500 | – | CCNC(=O)c1ccc2c(c1)/C(=C(\CC)Nc1cnn(C3CCN(C(C)C)CC3)c1)C(=O)N2 [Example 14] |
| 10 to 100 | 100 to 500 | CC/C(Nc1cnn(C2CCN(C(C)C)CC2)c1)=C1/C(=O)Nc2ccc(C(=O)NC(C)C)cc21 [Example 17] |
| 10 to 100 | – | CC/C(Nc1cnn(C2CCN(C(C)C)CC2)c1)=C1/C(=O)Nc2ccc(C(=O)NCC3COC3)cc21 [Example 18] |
| 10 to 100 | 10 to 100 | CC/C(Nc1cnn(C2CCN(C(C)C)CC2)c1)=C1/C(=O)Nc2ccc(C(=O)NC[C@@H]3CCCO3)cc21 [Example 19] |
| > 500 | – | CC/C(Nc1cnn(C2CCN(C(C)C)CC2)c1)=C1/C(=O)Nc2ccc(C(=O)N3CCOCC3)cc21 [Example 20] |
| 10 to 100 | – | CC/C(Nc1cnn(C2CCN(C(C)C)CC2)c1)=C1/C(=O)Nc2ccc(C(=O)NOC)cc21 [Example 22] |
| 10 to 100 | – | COCCNC(=O)c1ccc2c(c1)/C(=C(\C)Nc1cnn(C3CCN(C(C)C)CC3)c1)C(=O)N2 [Example 23] |
| 100 to 500 | > 500 | CC/C(Nc1cnn(C2CCN(C(C)C)CC2)c1)=C1/C(=O)Nc2ccc(C(=O)NC3COC3)cc21 [Example 25] |
| ≤ 10 | – | C/C(Nc1cnn(C2CCN(C(C)C)CC2)c1)=C1/C(=O)Nc2ccc(C(=O)NC[C@H]3CCCO3)cc21 [Example 45] |
| 100 to 500 | – | CC/C(Nc1cnn(C2CCN(C(C)C)CC2)c1)=C1/C(=O)Nc2ccc(C(=O)NCCc3cnn(C)c3)cc21 [Example 49] |
| 100 to 500 | – | CC/C(Nc1cnn(C2CCN(C(C)C)CC2)c1)=C1/C(=O)Nc2ccc(C(=O)NCc3cnn(C)c3)cc21 [Example 50] |
| 10 to 100 | 100 to 500 | CC/C(Nc1cnn(C2CCN(C(C)C)CC2)c1)=C1/C(=O)Nc2ccc(C(=O)NCC3(C)CCCO3)cc21 (stereo not drawn) [Example 56] |
| 100 to 500 | – | CC/C(Nc1cnn(C2CCN(C(C)C)CC2)c1)=C1/C(=O)Nc2ccc(C(=O)NCC(=O)N3CCCC3)cc21 [Example 57] |
| 100 to 500 | – | CC/C(Nc1cnn(C2CCN(C(C)C)CC2)c1)=C1/C(=O)Nc2ccc(C(=O)NCCC(=O)N(C)C)cc21 [Example 59] |
| > 500 | – | CC/C(Nc1cnn(C2CCN(C(C)C)CC2)c1)=C1/C(=O)Nc2ccc(C(=O)N3CCCC3)cc21 [Example 81] |
| ≤ 10 | 10 to 100 | CC/C(Nc1cnn(C2CNC2)c1)=C1/C(=O)Nc2ccc(C(=O)NC[C@H]3CCCO3)cc21 [Example 96] |
| 100 to 500 | 10 to 100 | CC/C(Nc1cc(C(C)C)ccn1)=C1/C(=O)Nc2ccc(C(=O)NCC(F)(F)F)cc21 [Example 97] |
| 100 to 500 | > 500 | CC/C(Nc1ccn(C(C)C)n1)=C1/C(=O)Nc2ccc(C(=O)NCC(F)(F)F)cc21 [Example 99] |
| 10 to 100 | 100 to 500 | CC/C(Nc1cnn(C(C)C)n1)=C1/C(=O)Nc2ccc(C(=O)NCC(F)(F)F)cc21 [Example 110] |
| 100 to 500 | 100 to 500 | CC/C(Nc1ccc(C(C)C)nc1)=C1/C(=O)Nc2ccc(C(=O)NCC(F)(F)F)cc21 [Example 111] |
| > 500 | > 500 | CC/C(Nc1cn(C)nc1C)=C1/C(=O)Nc2ccc(C(=O)NCC(F)(F)F)cc21 [Example 115] |

| IC50 [1] [nM] | IC50 [2] [nM] | Structure (SMILES) |
| --- | --- | --- |
| 10 to 100 | 100 to 500 | CC/C(Nc1cnn(C(C)C)c1)=C1/C(=O)Nc2ccc(C(=O)N[C@@H](C)C(F)(F)F)cc21 [Example 120] |
| > 500 | > 500 | CC/C(Nc1cnn2c1CCC2)=C1/C(=O)Nc2ccc(C(=O)NCC(F)(F)F)cc21 [Example 121] |
| 10 to 100 | 100 to 500 | CC/C(Nc1cnn(C(C)C)c1)=C1/C(=O)Nc2ccc(C(=O)N(C)C[C@H]3CCCO3)cc21 [Example 129] |
| 100 to 500 | 100 to 500 | CC/C(Nc1cnn(C(C)C)c1)=C1/C(=O)Nc2ccc(C(=O)NC3CC3)cc21 [Example 131] |
| 100 to 500 | > 500 | CC/C(Nc1cnn(C(C)C)c1)=C1/C(=O)Nc2ccc(C(=O)NC(C)C)cc21 [Example 132] |
| 100 to 500 | > 500 | CC/C(Nc1cnn(C(C)C)c1)=C1/C(=O)Nc2ccc(C(=O)NC)cc21 [Example 133] |
| 100 to 500 | – | CC/C(Nc1cnn(C2CCN(C(C)C)CC2)c1)=C1/C(=O)Nc2ccc(C(=O)N(C)OC)cc21 [Example 139] |
| 100 to 500 | 100 to 500 | CC/C(Nc1cnn(C(C)C)c1)=C1/C(=O)Nc2cc(Cl)c(C(=O)NCC(F)(F)F)cc21 [Example 141] |
| 100 to 500 | > 500 | CC/C(Nc1nc(C)co1)=C1/C(=O)Nc2ccc(C(=O)NCC(F)(F)F)cc21 [Example 143] |
| 100 to 500 | 100 to 500 | CC/C(Nc1nnc(C)o1)=C1/C(=O)Nc2ccc(C(=O)NCC(C)(C)F)cc21 [Example 146] |
| 100 to 500 | > 500 | CC/C(Nc1cnn(C(C)C)c1)=C1/C(=O)Nc2ccc(C(=O)N3CC[C@@H](C(F)(F)F)C3)cc21 [Example 150] |
| 10 to 100 | 100 to 500 | CC/C(Nc1cnn(C(C)C)c1)=C1/C(=O)Nc2ccc(C(=O)N3CC[C@H](C(F)(F)F)C3)cc21 [Example 151] |
| 10 to 100 | 100 to 500 | CC/C(Nc1ncc(C)o1)=C1/C(=O)Nc2ccc(C(=O)NCC(F)(F)F)cc21 [Example 155] |
| > 500 | > 500 | CC/C(Nc1cnn(C(C)C)c1)=C1/C(=O)Nc2ccc(C(=O)NCCN3CCC3)cc21 [Example 162] |
| 10 to 100 | 100 to 500 | CC/C(Nc1cnn(C(C)C)c1)=C1/C(=O)Nc2ccc(C(=O)NCC3(OC)CC3)cc21 [Example 163] |
| ≤ 10 | 10 to 100 | CC/C(Nc1cnn(C(C)C)c1)=C1/C(=O)Nc2ccc(C(=O)NCCC(C)(C)F)cc21 [Example 164] |
| ≤ 10 | ≤ 10 | CC/C(Nc1cnn(C2CCC2)c1)=C1/C(=O)Nc2ccc(C(=O)NCC(C)(C)F)cc21 [Example 165] |
| 100 to 500 | 100 to 500 | CC/C(Nc1cnn(C(C)C)c1)=C1/C(=O)Nc2ccc(C(=O)NC(C)(C)CC(F)(F)F)cc21 [Example 167] |
| 100 to 500 | 100 to 500 | CC/C(Nc1cnn(C(C)C)c1)=C1/C(=O)Nc2ncc(C(=O)NCC(C)(C)F)cc21 [Example 170] |
| 100 to 500 | 100 to 500 | CC/C(Nc1cnn(C(C)C)c1)=C1/C(=O)Nc2ncc(C(=O)NCC(F)(F)F)cc21 [Example 171] |
| 10 to 100 | 100 to 500 | CC/C(Nc1cnn(C(C)C)c1)=C1/C(=O)Nc2ncc(C(=O)NCC3(F)CC3)cc21 [Example 172] |
| ≤ 10 | 100 to 500 | CC/C(Nc1cnn(C(C)C)c1)=C1/C(=O)Nc2ccc(C(=O)N(CC(F)(F)F)C3CC3)cc21 [Example 175] |
| > 500 | > 500 | CC/C(Nc1cnn(C(C)C)c1)=C1/C(=O)Nc2ccc(C(=O)CN(C)C)cc21 [Example 176] |
| > 500 | > 500 | CC/C(Nc1cnn(C(C)C)c1)=C1/C(=O)Nc2ccc(C(=O)Nc3cnn(CC(F)(F)F)c3)cc21 [Example 178] |
